In PubChem BioAssay AID248 (DTP/NCI, 2004):
Values joined by “and” are separate entries in the source; they are usually repeats but may differ in a detail not shown here. Equal entries are not always repeated. Toxic doses and inconclusive results are not listed. Cut-off read from the data, not from the text of the source: active = T/C of 150% or more; inactive = T/C below 125%.

System: L1210 leukemia ip in BDF1 mice, survival T/C
Experiment: NCI In Vivo Anticancer Drug Screen. Data for tumor model L1210 Leukemia (intraperitoneal) in B6D2F1 (BDF1) mice
Settings: endpoint: mean survival time, higher = longer survival
Outline: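 Survival endpoint. Drug-treated group vs vehicle group, expressed as T divided by C. Tumor passaged by transplantation.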

[1] = dose: 75.0 mg/kg/injection, schedule: Q01DX001 (ip), vehicle: saline
[2] = dose: 150.0 mg/kg/injection, schedule: Q01DX001 (ip), vehicle: saline
[3] = dose: 100.0 mg/kg/injection, schedule: Q04DX003 (ip), vehicle: Klucel (hydroxypropylcellulose) (HPC)
[4] = dose: 200.0 mg/kg/injection, schedule: Q04DX003 (ip), vehicle: Klucel (hydroxypropylcellulose) (HPC)
[5] = dose: 400.0 mg/kg/injection, schedule: Q04DX003 (ip), vehicle: Klucel (hydroxypropylcellulose) (HPC)
[6] = dose: 100.0 mg/kg/injection, schedule: Q01DX009 (ip), vehicle: Klucel (hydroxypropylcellulose) (HPC)
[7] = dose: 200.0 mg/kg/injection, schedule: Q01DX009 (ip), vehicle: Klucel (hydroxypropylcellulose) (HPC)
[8] = dose: 100.0 mg/kg/injection, schedule: Q04DX003 (ip), vehicle: saline with Tween-80
[9] = dose: 200.0 mg/kg/injection, schedule: Q04DX003 (ip), vehicle: saline with Tween-80
[10] = dose: 400.0 mg/kg/injection, schedule: Q04DX003 (ip), vehicle: saline with Tween-80
[11] = dose: 100.0 mg/kg/injection, schedule: Q04DX002 (ip), vehicle: saline with Tween-80
[12] = dose: 200.0 mg/kg/injection, schedule: Q04DX002 (ip), vehicle: saline with Tween-80
[13] = dose: 400.0 mg/kg/injection, schedule: Q04DX002 (ip), vehicle: saline with Tween-80
[14] = dose: 100.0 mg/kg/injection, schedule: Q04DX003 (ip), vehicle: saline
[15] = dose: 200.0 mg/kg/injection, schedule: Q04DX003 (ip), vehicle: saline
[16] = dose: 400.0 mg/kg/injection, schedule: Q04DX003 (ip), vehicle: saline
[17] = dose: 400.0 mg/kg/injection, schedule: Q01DX009 (ip), vehicle: Klucel (hydroxypropylcellulose) (HPC)
[18] = dose: 100.0 mg/kg/injection, schedule: Q01DX001 (ip), vehicle: saline
[19] = dose: 200.0 mg/kg/injection, schedule: Q01DX001 (ip), vehicle: saline
[20] = dose: 400.0 mg/kg/injection, schedule: Q01DX001 (ip), vehicle: saline
[21] = dose: 100.0 mg/kg/injection, schedule: Q01DX009 (ip), vehicle: saline with Tween-80
[22] = dose: 200.0 mg/kg/injection, schedule: Q01DX009 (ip), vehicle: saline with Tween-80
[23] = dose: 100.0 mg/kg/injection, schedule: Q01DX009 (ip), vehicle: saline
[24] = dose: 400.0 mg/kg/injection, schedule: Q01DX009 (ip), vehicle: saline with Tween-80

Measured: T/C

NC(=O)NC(=O)Nc1ccccc1
inactive: dose: 100.0 mg/kg/injection, schedule: Q04DX002 (ip), vehicle: saline 96 % of control | dose: 200.0 mg/kg/injection, schedule: Q04DX002 (ip), vehicle: saline 96 % of control | dose: 400.0 mg/kg/injection, schedule: Q04DX002 (ip), vehicle: saline 111 % of control

COc1ccc(NC(=O)Nc2cccc(C(=O)O)c2)c(OC)c1
inactive: dose: 100.0 mg/kg/injection, schedule: Q04DX002 (ip), vehicle: Klucel (hydroxypropylcellulose) (HPC) 101 % of control | dose: 200.0 mg/kg/injection, schedule: Q04DX002 (ip), vehicle: Klucel (hydroxypropylcellulose) (HPC) 104 % of control | dose: 400.0 mg/kg/injection, schedule: Q04DX002 (ip), vehicle: Klucel (hydroxypropylcellulose) (HPC) 97 % of control

NC(C(=O)c1ccccc1)c1ccccc1.[Cl][Sn][Cl] (stereo unspecified)
inactive: [1] 102 % of control | [2] 117 % of control

O=[N+]([O-])c1cccc(S(=O)(=O)NNc2cc(C(F)(F)F)ccc2Cl)c1
inactive: dose: 100.0 mg/kg/injection, schedule: Q01DX001 (ip), vehicle: Klucel (hydroxypropylcellulose) (HPC) 93 % of control | [3] 92 % of control | dose: 200.0 mg/kg/injection, schedule: Q01DX001 (ip), vehicle: Klucel (hydroxypropylcellulose) (HPC) 94 % of control | [4] 87 % of control | dose: 400.0 mg/kg/injection, schedule: Q01DX001 (ip), vehicle: Klucel (hydroxypropylcellulose) (HPC) 98 % of control | [5] 100 % of control

CNO
inactive: [6] 100 % of control | [3] 95 % of control | [7] 97 % of control | [4] 95 % of control | [5] 109 % of control

Cc1ccc(C)c(Cc2c(C=O)[nH]c(=S)[nH]c2=O)c1
inactive: [8] 97 % of control | [9] 101 % of control | [10] 110 % of control

N#CCN1C(=O)c2ccccc2C1=O
inactive: dose: 12.5 mg/kg/injection, schedule: Q01DX009 (ip), vehicle: Klucel (hydroxypropylcellulose) (HPC) 96 % of control | dose: 12.5 mg/kg/injection, schedule: Q04DX003 (ip), vehicle: Klucel (hydroxypropylcellulose) (HPC) 100 % of control | dose: 25.0 mg/kg/injection, schedule: Q01DX009 (ip), vehicle: Klucel (hydroxypropylcellulose) (HPC) 101 % of control | dose: 25.0 mg/kg/injection, schedule: Q04DX003 (ip), vehicle: Klucel (hydroxypropylcellulose) (HPC) 98 % of control | dose: 50.0 mg/kg/injection, schedule: Q04DX003 (ip), vehicle: Klucel (hydroxypropylcellulose) (HPC) 100 % of control | dose: 75.0 mg/kg/injection, schedule: Q01DX001 (ip), vehicle: other 107 % of control

O=S(=O)(ON/N=C/c1cc2ccccc2c2ccccc12)c1ccccc1
inactive: dose: 75.0 mg/kg/injection, schedule: Q01DX009 (ip), vehicle: Klucel (hydroxypropylcellulose) (HPC) 96 % of control | dose: 150.0 mg/kg/injection, schedule: Q01DX009 (ip), vehicle: Klucel (hydroxypropylcellulose) (HPC) 96 % of control | dose: 300.0 mg/kg/injection, schedule: Q01DX009 (ip), vehicle: Klucel (hydroxypropylcellulose) (HPC) 98 % of control

CCOCC(=O)Oc1ccc(/C=N/NC(N)=S)nc1
inactive: [11] 116 % of control | [12] 113 % of control | [13] 116 % of control

CC(=O)CCC1(c2cc[n+](C)cc2)CCC(C)(O)C(C(C)=O)C1 (stereo unspecified)
inactive: [14] 93 % of control | [15] 94 % of control | [16] 100 % of control

CCCCCCCCCCCC[N+]1(CCCCCCCCCCCC)CCCC(C)C1 (stereo unspecified)
inactive: dose: 3.0 mg/kg/injection, schedule: Q04DX002 (ip), vehicle: Klucel (hydroxypropylcellulose) (HPC) 109 % of control | dose: 6.0 mg/kg/injection, schedule: Q04DX002 (ip), vehicle: Klucel (hydroxypropylcellulose) (HPC) 87 % of control

O=C(Nc1cccc(C(F)(F)F)c1)N(C1CCCCC1)C1CCCCC1
inactive: [6] 92 % of control | [7] 87 % of control | [17] 87 % of control

Nc1ncc([N+](=O)[O-])cn1
inactive: [6] 107 % of control | [3] 103 % of control | [7] 91 % of control | [4] 97 % of control | [17] 100 % of control | [5] 94 % of control

CCC(=O)c1ccc(NC(C)=O)cc1
inactive: [6] 100 % of control | [3] 99 % of control | [7] 100 % of control | [4] 96 % of control | [17] 103 % of control | [5] 96 % of control

COc1cccc2c(=O)cc(C)[nH]c12
inactive: dose: 50.0 mg/kg/injection, schedule: Q01DX009 (ip), vehicle: water 104 % of control | dose: 100.0 mg/kg/injection, schedule: Q01DX009 (ip), vehicle: water 102 % of control | dose: 100.0 mg/kg/injection, schedule: Q04DX003 (ip), vehicle: water 101 % of control | dose: 200.0 mg/kg/injection, schedule: Q01DX009 (ip), vehicle: water 109 % of control | dose: 200.0 mg/kg/injection, schedule: Q04DX003 (ip), vehicle: water 96 % of control | dose: 400.0 mg/kg/injection, schedule: Q01DX009 (ip), vehicle: water 105 % of control | dose: 400.0 mg/kg/injection, schedule: Q04DX003 (ip), vehicle: water 108 % of control

O=C(N/N=C\c1ccc(N(CCCl)CCCl)cc1)c1cccnc1
inactive: dose: 12.5 mg/kg/injection, schedule: Q01DX Z (ip), vehicle: carboxymethylcellulose (CMC) 96 % of control | dose: 25.0 mg/kg/injection, schedule: Q01DX Z (ip), vehicle: carboxymethylcellulose (CMC) 93 % of control and 94 % of control | dose: 50.0 mg/kg/injection, schedule: Q01DX Z (ip), vehicle: carboxymethylcellulose (CMC) 94 % of control and 100 % of control | dose: 100.0 mg/kg/injection, schedule: Q01DX Z (ip), vehicle: carboxymethylcellulose (CMC) 97 % of control and 104 % of control | dose: 200.0 mg/kg/injection, schedule: Q01DX Z (ip), vehicle: carboxymethylcellulose (CMC) 107 % of control and 111 % of control

O=c1cc(NCc2ccccc2[N+](=O)[O-])[nH]c(=O)[nH]1
inactive: [18] 95 % of control | [19] 100 % of control | [20] 98 % of control

CC1CC([O-])=N/[N+]1=C\c1ccccc1 (stereo unspecified)
inactive: [18] 97 % of control | [21] 96 % of control | [19] 95 % of control | [22] 87 % of control | [20] 97 % of control

C[n+]1ccc2ccccc2c1
inactive: dose: 50.0 mg/kg/injection, schedule: Q01DX009 (ip), vehicle: saline 105 % of control | dose: 50.0 mg/kg/injection, schedule: Q04DX003 (ip), vehicle: saline 105 % of control | [23] 100 % of control | [14] 101 % of control | dose: 200.0 mg/kg/injection, schedule: Q01DX009 (ip), vehicle: saline 107 % of control | [15] 106 % of control

CNC(=O)O/N=C/c1ccc([N+](=O)[O-])cc1
inactive: [1] 94 % of control | [2] 100 % of control

O=Cc1c[nH]c2ccc(Br)cc12
inactive: [14] 95 % of control | [15] 105 % of control | [16] 95 % of control

Oc1ccc(NC(=S)Nc2ccccc2)cc1
inactive: [21] 93 % of control | [22] 88 % of control | [24] 92 % of control

Cc1c(Cl)cccc1NC(=O)Nc1cccc(O)c1
inactive: [21] 104 % of control and 89 % of control | [11] 97 % of control and 100 % of control | [8] 101 % of control | [22] 95 % of control and 97 % of control | [12] 93 % of control and 89 % of control | [9] 100 % of control | [24] 93 % of control and 90 % of control | [13] 93 % of control and 94 % of control | [10] 97 % of control

CNS(=O)(=O)c1ccc(Cl)cc1
inactive: [18] 95 % of control | [21] 118 % of control | [23] 98 % of control | [19] 101 % of control | [22] 94 % of control | [20] 96 % of control

CC(=O)Nc1ccc2scnc2c1
inactive: [8] 112 % of control | [9] 112 % of control | [10] 105 % of control
